# Experimental data reported in publication PMC9917406, “Synthesis, Biological and In Silico Studies of Griseofulvin and Usnic Acid Sulfonamide Derivatives as Fungal, Bacterial and Human Carbonic Anhydrase Inhibitors” (International Journal of Molecular Sciences, 2023).
# Where two headings read alike, the source gives them in different places.
# Assays:
# Type in all cases: biochemical
# PgiCAγ = target: T1, PgiCAγ (Porphyromonas gingivalis, UniProt Q7MV79); assay: stopped-flow CO2 hydrase assay, PgiCAγ; conditions: for Ki: mean from 3 different assays, errors ±5–10%
# T1 sequence (Q7MV79 1-192): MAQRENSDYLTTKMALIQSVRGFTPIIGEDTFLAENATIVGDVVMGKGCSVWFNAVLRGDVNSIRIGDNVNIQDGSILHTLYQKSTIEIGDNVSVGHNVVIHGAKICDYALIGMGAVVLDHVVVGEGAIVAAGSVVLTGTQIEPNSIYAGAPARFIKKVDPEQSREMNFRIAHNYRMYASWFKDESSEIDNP
# hCA II = hCA II (Homo sapiens, UniProt P00918); assay: stopped-flow CO2 hydrase assay, hCA II; conditions: for Ki: mean from 3 different assays, errors ±5–10%; for selectivity index (SI) towards hCA I: hCA II inhibition relative to hCA I; for selectivity index (SI) towards hCA IX: hCA II inhibition relative to hCA IX
# PgiCAβ = target: T2, PgiCAβ (Porphyromonas gingivalis, UniProt B2RL07); assay: stopped-flow CO2 hydrase assay, PgiCAβ; conditions: mean from 3 different assays, errors ±5–10%
# T2 sequence (B2RL07 19-242): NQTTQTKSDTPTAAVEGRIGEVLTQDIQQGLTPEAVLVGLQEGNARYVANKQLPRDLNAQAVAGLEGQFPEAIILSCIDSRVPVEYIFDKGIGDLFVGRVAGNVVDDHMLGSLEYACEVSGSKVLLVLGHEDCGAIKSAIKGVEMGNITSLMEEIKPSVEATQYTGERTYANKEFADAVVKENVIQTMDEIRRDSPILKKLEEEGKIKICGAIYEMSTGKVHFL
# CpsCAγ = CpsCAγ (Colwellia psychrerythraea, UniProt Q48AV3); assay: biochemical
# Sequence of CpsCAγ (Q48AV3 entry or part of it): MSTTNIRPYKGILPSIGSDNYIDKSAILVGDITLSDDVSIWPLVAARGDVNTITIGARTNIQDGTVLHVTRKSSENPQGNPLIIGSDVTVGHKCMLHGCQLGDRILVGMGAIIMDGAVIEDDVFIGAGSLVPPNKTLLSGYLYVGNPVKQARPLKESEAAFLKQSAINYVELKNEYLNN
# SmuCA = target: T3, SmuCA (Streptococcus mutans, UniProt Q8DVY1); assay: stopped-flow CO2 hydrase assay, SmuCA; conditions: for Ki: mean from 3 different assays, errors ±5–10%
# T3 sequence (Q8DVY1 1-166): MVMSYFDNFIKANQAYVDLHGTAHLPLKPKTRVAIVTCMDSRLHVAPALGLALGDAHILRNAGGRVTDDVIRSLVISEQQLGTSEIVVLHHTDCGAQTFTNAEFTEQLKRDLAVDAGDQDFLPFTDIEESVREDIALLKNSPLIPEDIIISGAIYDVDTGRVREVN
# hCA I = hCA I (Homo sapiens, UniProt P00915); assay: stopped-flow CO2 hydrase assay, hCA I; conditions: mean from 3 different assays, errors ±5–10%
# Sequence of hCA I (P00915 whole entry): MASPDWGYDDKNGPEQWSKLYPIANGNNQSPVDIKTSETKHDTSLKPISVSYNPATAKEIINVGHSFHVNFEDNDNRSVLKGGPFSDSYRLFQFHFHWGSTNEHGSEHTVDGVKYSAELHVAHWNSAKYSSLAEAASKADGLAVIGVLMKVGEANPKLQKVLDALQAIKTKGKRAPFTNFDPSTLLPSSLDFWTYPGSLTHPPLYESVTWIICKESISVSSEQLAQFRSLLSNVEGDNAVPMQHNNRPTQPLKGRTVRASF
# BpsCAγ = BpsCAγ (Burkholderia pseudomallei, UniProt Q63SQ4); conditions: read-out: KI BpsCAγ
# Sequence of BpsCAγ (Q63SQ4 1-174): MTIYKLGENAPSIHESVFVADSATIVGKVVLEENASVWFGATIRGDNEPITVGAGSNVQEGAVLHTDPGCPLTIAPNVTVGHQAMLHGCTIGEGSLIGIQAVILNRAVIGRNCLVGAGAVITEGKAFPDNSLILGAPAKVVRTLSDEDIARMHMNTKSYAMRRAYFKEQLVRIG
# hCA IX = hCA IX (Homo sapiens, UniProt Q16790); assay: stopped-flow CO2 hydrase assay, hCA IX; conditions: mean from 3 different assays, errors ±5–10%; read-out: KI hCAIX
# MgCA = target: T4, MgCA (Malassezia globosa, UniProt A8Q1N3); assay: stopped-flow CO2 hydrase assay, MgCA; conditions: mean from 3 different assays, errors ±5–10%
# T4 sequence (A8Q1N3 1-241): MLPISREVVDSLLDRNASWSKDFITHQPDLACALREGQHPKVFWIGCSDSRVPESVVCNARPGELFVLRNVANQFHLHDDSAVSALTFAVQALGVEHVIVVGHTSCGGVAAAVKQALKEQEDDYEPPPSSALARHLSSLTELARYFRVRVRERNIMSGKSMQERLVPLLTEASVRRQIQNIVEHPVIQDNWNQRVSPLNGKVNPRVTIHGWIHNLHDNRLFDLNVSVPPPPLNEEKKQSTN
# [1] = mean from 3 different assays, errors ±5–10%, read-out: KI CpsCAγ
SMILES,SI towards PgiCAβ (PgiCAγ; PgiCAγ inhibition relative to PgiCAβ),fold more active than acetazolamide (PgiCAγ; against PgiCAγ) [fold],Ki (PgiCAγ) [nM],Ki (hCA II) [nM],Ki (PgiCAβ) [nM],Ki (CpsCAγ) [nM],Ki (SmuCA) [nM],Ki (hCA I) [nM],Ki (BpsCAγ) [nM],Ki (hCA IX) [nM],Ki (MgCA) [nM],SI towards all other bacterial strains (SmuCA; S. mutans CA inhibition relative to other bacterial CAs),selectivity index (SI) towards hCA I (hCA II),selectivity index (SI) towards hCA IX (hCA II),Ki (CpsCAγ; [1]) [nM],SI towards BpsCAγ (CpsCAγ; CpsCAγ inhibition relative to BpsCAγ),SI towards PgiCAγ (CpsCAγ; CpsCAγ inhibition relative to PgiCAγ),SI towards S. mutans (CpsCAγ; CpsCAγ inhibition relative to S. mutans CA)
"COc1cc(OC)c2c(c1Cl)OC1(C(=O)C=C(NCCS(N)(=O)=O)CC1C)C2=O [Compound 1a, 2-(((2S,6′R)-7-chloro-4,6-dimethoxy-6′-methyl-2′,3-dioxo-3H-spiro[benzofuran-2,1′-cyclohexan]-3′-en-4′-yl)amino)ethane-1-sulfonamide]",8.5,3.5,92.1,653,779,3150,1630,562,448,31.2,544,–,–,–,–,–,–,–
"COc1cc(OC)c2c(c1Cl)OC1(C(=O)C=C(Nc3ccc(S(N)(=O)=O)cc3)CC1C)C2=O [Compound 1b, 4-(((2S,6′R)-7-chloro-4,6-dimethoxy-6′-methyl-2′,3-dioxo-3H-spiro[benzofuran-2,1′-cyclohexan]-3′-en-4′-yl)amino)benzenesulfonamide]",–,–,820,64.4,819,939,294,234,945,203,476,3,–,–,–,–,–,–
"COc1cc(OC)c2c(c1Cl)OC1(C(=O)C=C(NCc3ccc(S(N)(=O)=O)cc3)CC1C)C2=O [Compound 1c, 4-((((2S,6′R)-7-chloro-4,6-dimethoxy-6′-methyl-2′,3-dioxo-3H-spiro[benzofuran-2,1′-cyclohexan]-3′-en-4′-yl)amino)methyl)benzenesulfonamide]",–,–,661,29.1,896,900,4000,74.6,833,102,568,–,–,–,–,–,–,–
"COc1cc(OC)c2c(c1Cl)OC1(C(=O)C=C(Nc3ccc(S(N)(=O)=O)cc3O)CC1C)C2=O [Compound 1d, 4-(((2S,6′R)-7-chloro-4,6-dimethoxy-6′-methyl-2′,3-dioxo-3H-spiro[benzofuran-2,1′-cyclohexan]-3′-en-4′-yl)amino)-3-hydroxybenzenesulfonamide]",–,–,584,4.9,1280,591,897,28.8,878,29.4,1590,–,5.88,6.00,–,–,–,–
COc1cc(OC)c2c(c1Cl)O[C@@]1(C(=O)/C(=C\NCc3ccc(S(N)(=O)=O)cc3)C(=O)C[C@H]1C)C2=O [Compound 1e],–,–,1270,165,940,220,1640,320,1060,29.2,1830,–,–,–,–,–,–,–
"COc1cc(OC)c2c(c1Cl)O[C@@]1(C(=O)C(=CNCCc3ccc(S(N)(=O)=O)cc3)C(=O)C[C@H]1C)C2=O [Compound 1f, 4-(2-((((2R,2′R)-7-chloro-4,6-dimethoxy-2′-methyl-3,4′,6′-trioxo-3H-spiro[benzofuran-2,1′-cyclohexan]-5′-ylidene)methyl)amino)ethyl)benzenesulfonamide]",–,–,602,70.8,8360,726,2470,348,2280,30.6,4000,–,–,–,–,–,–,–
COc1cc(C(CC(=O)NCCS(N)(=O)=O)C2C(=O)C[C@@H](C)[C@]3(Oc4c(Cl)c(OC)cc(OC)c4C3=O)C2=O)ccc1O (stereo partly drawn) [Compound 1g],–,–,2220,4050,5590,–,1220,2990,2330,710,3150,–,–,–,301,–,–,–
COc1cc(OC)c2c(c1Cl)O[C@]1(C2=O)C(=O)C(C(CC(=O)NCc2ccc(S(N)(=O)=O)cc2)c2ccc(SC)cc2)C(=O)C[C@H]1C (stereo partly drawn) [Compound 1h],–,–,853,7.5,5750,–,580,41.1,1400,73.7,4350,–,–,–,625,–,–,–
"COc1cc(OC)c2c(c1Cl)O[C@]1(C2=O)C(=O)C(C(CC(=O)NCCc2ccc(S(N)(=O)=O)cc2)c2ccc(SC)cc2)C(=O)C[C@H]1C (stereo partly drawn) [Compound 1i, 3-((2S,2′R)-7-chloro-4,6-dimethoxy-2′-methyl-3,4′,6′-trioxo-3H-spiro[benzofuran-2,1′-cyclohexan]-5′-yl)-3-(4-(methylthio)phenyl)-N-(4-sulfamoylphenethyl)propenamide]",–,–,854,8.1,506,–,889,15.3,1040,23.3,1910,–,–,–,804,–,–,–
"COc1cc(OC)c2c(c1Cl)O[C@]1(C2=O)C(=O)C(C(CC(=O)NCC(=O)Nc2ccc(S(N)(=O)=O)cc2)c2ccc(SC)cc2)C(=O)C[C@H]1C (stereo partly drawn) [Compound 1j, 3-((2S,2′R)-7-chloro-4,6-dimethoxy-2′-methyl-3,4′,6′-trioxo-3H-spiro[benzofuran-2,1′-cyclohexan]-5′-yl)-3-(4-(methylthio)phenyl)-N-(2-oxo-2-((4-sulfamoylphenyl)amino)ethyl)propenamide]",–,–,2320,5.7,3000,–,1230,27.7,710,22.5,2050,–,–,–,177,4,13,6.9
"CC(=O)c1c(O)c(C)c(O)c2c1OC1=CC(=O)C(=C(C)Nc3ccc(S(N)(=O)=O)cc3O)C(=O)[C@@]12C [Compound 4a, (R)-4-((1-(6-acetyl-7,9-dihydroxy-8,9b-dimethyl-1,3-dioxo-3,9b-dihydrodibenzo[b,d]furan-2(1H)-ylidene)ethyl)amino)-3-hydroxybenzenesulfonamide]",–,–,897,8.4,888,723,841,370,473,66.9,3430,–,43.9,7.96,–,–,–,–
"CC(=O)c1c(O)c(C)c(O)c2c1OC1=CC(=O)C(=C(C)Nc3cc(S(N)(=O)=O)ccc3O)C(=O)[C@@]12C [Compound 4b, (R)-3-((1-(6-acetyl-7,9-dihydroxy-8,9b-dimethyl-1,3-dioxo-3,9b-dihydrodibenzo[b,d]furan-2(1H)-ylidene)ethyl)amino)-4-hydroxybenzenesulfonamide]",–,–,1840,755,766,809,1700,–,1000,305,2500,–,–,–,–,–,–,–
